Measured values as given in patent publication US7374890B2, “Methods for identifying compounds that modulate ΔTRα2 activity” (University of Massachusetts, priority 2000, dated 2008).

Legend:
[1] = tested on: cerebellar granule neurons; experiment: release of FM1-43-loaded synaptic vesicles from cerebellar granule neurons under continuous stimulus; assay type: cell-based, rat
Procedure: Granule neurons were grown for 7 days and rendered hormone free by growth in serum-free medium as detailed above. Coverslips were then placed in a perfusion chamber, mounted on the stage of a laser scanning confocal microscope and perfused at 1 ml/min at 25° C. with perfusion buffer (119 mM NaCl, 2.5 mM KCl, 2 mM CaCl2, 2 mM MgCl2, 25 mM HEPES (pH 7.4), 30 mM glucose, and […] AP-5). The effects of different hormones on synaptic vesicle trafficking were then determined. […] Depolarizing KCl was then removed from the perfusion buffer and the cells were exposed to FM1-43 for an additional 30 seconds to insure complete loading of recycling synaptic vesicles. Loaded cells were then washed free of dye and the cells were perfused for ten minutes at rest.
Images of a single field of neuronal fibers were then taken immediately before adding a second depolarizing solution (perfusion buffer containing 50 mM KCl) and at one and two minutes after beginning the continuous stimulation by 50 mM KCl. Thirty to forty-five individual FM1-43 labeled nerve terminals were identified in the baseline images (taken prior to depolarization) and the change in fluorescence (DF) for each nerve terminal determined at the one and two minute time points. FIGS. 11A and 11B show the results of analysis of the hormone specificity of synaptic vesicle trafficking (FIG. 11A) and the influence of individual myo5a mutants (FIG. 11B) on synaptic vesicle transport in granule neurons.
To evaluate the role of myo5a in synaptic vesicle transport, three different myo5a constructs were introduced into the neurons by replication-deficient adenoviral vectors (Δmyo5a^tail(MyoV^tail), Δmyo5a^c-term(MyoV^1830)and ΔMyo5a^CC(MyoV^cc) see FIG. 5) as described above. […] Neurons were infected with purified Ad5-constructs (MOI=10) 48 hours prior to the synaptic vesicle trafficking study, and allowed to recover in hormone (T4) supplemented medium. […] This modest influence of the VBD mutant on synaptic vesicle retention is likely to be due to the loss of the kinesin-binding domain that limits its delivery to nerve terminals.

[2] = tested on: binding of p29^GFP vesicles to F-actin; experiment: modified in vitro actin binding assay with p29^GFP-labeled vesicles; assay type: biochemical, rat; conditions: for competition with native myosin V for T4-dependent binding of p29 to F-actin: ~2-3 pmol polypeptide/50 μl mixture, 10 nM T4
Procedure: To define the specific region(s) of the myosin V tail that interact with the p29 vesicle, a series of deletion mutations were created based on the dominant negative effect of exogenous myosin V tail on p29 vesicle binding. Competition analysis of the myosin V deletion mutations on T4-dependent binding of p29 vesicles to F-actin was performed using a modified in vitro assay in which a GFP-tagged p29 fusion protein (p29^GFP) replaced the radioaffinity labeled native p29 (Farwell et al., 1990, J. Biol. Chem. 265:18546-18553; Farwell et al., 1993, J. Biol. Chem. 268:5055-5062). This allowed direct evaluation of the binding of fluorescent vesicles to F-actin without affinity radiolabeling of the p29 and subsequent SDS-PAGE analysis.
Specific fluorescence at 510 nm (excitation, 488 nm) was then determined in the resuspended Triton-insoluble pellets.
To determine if the myosin V tail could be captured by the p29^GFP vesicle, an exogenous myosin V^tail was introduced into astrocytes constitutively expressing p29^GFP by infection with Ad5-ΔMyo V^tail virus particles and examined the effects of T4 on the binding of the myosin V^tail to immunopurified p29^GFP vesicles. Astrocytes expressing p29^GFP were grown in serum-free media and treated for 16 hours with 1 mM bt2cAMP and 100 nM hydrocortisone. A separate pool of astrocytes was treated in serum-free media supplemented with 10 μM retinoic acid. Cells were collected by scraping, and lysed by two freeze-thaw cycles. […] Triton-soluble (vesicle) and Triton-insoluble (F-actin) fractions were separated by microflige centrifugation. Triton pellets were resuspended in 300 μl of PBS and fluorescence at 510 nm (excitation 488 nm) determined and relative fluorescence was reported as arbitrary units. Cells were treated with 10 nM T4 for twenty minutes and a Triton-soluble supernatant was prepared. Vesicles containing the p29^GFP were immunoprecipitated by anti-GFP IgG (2 μg/ml) and protein in the immunoprecipitates were resolved by SDS-PAGE. Immunoblot analysis of vesicle-associated myosin V was performed using the anti-myosin V antibody directed against the C-terminus.
The quantity of each mutant protein synthesized was determined by [^35 S]-methionine incorporation. Astrocytes expressing p29^GFP were grown in serum-free media and treated for 16 hours with […] bt2cAMP and 100 nM hydrocortisone. p29^GFP V-lysate and F-lysate were prepared as described herein. 100 μg aliquots of p29^GFP V-lysate and F-lysate were pre-incubated, in triplicate, for 20 minutes at 37° C. in the presence of individual Δ myosin V mutant proteins (˜2-3 pmol polypeptide/50 μl mixture) were added to the actin-binding assay and pre-incubated for 20 minutes at 37° C. T4 (10 nM) was then added, the mixtures incubated for 20 minutes at 37° C., and F-actin bound, fluorescent p29^GFP vesicles were then isolated in the Triton-insoluble pellet.
V lysates prepared from astrocytes over-expressing p29^GFP were pre-incubated for 30 minutes at room temperature with antisera raised against ΔTRα2, ΔTRα1, the C-terminus of MyoV (encoded by MyoV^tail, FIG. 5), the coiled-coil region of MyoV (encoded by MyoV^coil-coil, FIG. 5) and GFP (green fluorescent protein). T4 (10 nM) and actin fiber-containing F-lysate was then added, the mixtures incubated at 37° C. for 20 minutes, and the Triton-insoluble fraction isolated by centrifugation.

[3] = tested on: cerebellar granule neurons; experiment: FM1-43 synaptic vesicle recycling in cultured cerebellar granule neurons, spontaneous activity; assay type: cell-based, rat
Procedure: All of the major components of hormone-induced vesicle trafficking in astrocytes (actin fibers, myosin V (also referred to as myosin 5a and myo 5a), and recycling vesicles) are also present in nerve terminals. Therefore, the effects of thyroid hormone on synaptic vesicle recycling in the presynaptic nerve terminal were examined using myo5a-dependent synaptic vesicle (SV) recycling in cultured cerebellar granule neurons. In these experiments, rat granule neurons were grown on laminin-coated coverslips in the absence or presence of hormone and synaptic vesicle recycling was examined using FM1-43 (a styryl dye used in the art for studying endocytosis and exocytosis, e.g., in synaptic vesicle uptake and release assays; Molecular Probes, Inc. Eugene, Oreg.). […] In contrast, granule neurons grown in thyroid hormone supplemented medium released only 15-20% of the FM1-43 after six minutes of incubation and the hormone specificity of retention of FM1-43 in the “reserve pool” was identical to that determined for myo5a-dependent, endocytosis of p29 vesicles (D2p29 vesicles) in astrocytes.
Cerebellar granule neurons were examined because thyroid hormone has a profound influence on granule neuron viability during cerebellar maturation (Xiao and Nikodem, 1998, Front. Biosci. 3: A52-57; Rabie et al., 1980, Brain Res. 190:409-414), and because of the effects of the loss of myo5a on synaptic vesicle homeostasis (Bridgman, 1999, J. Cell Biol. 146:1045-1060). […]
Experiments were conducted to determine whether synaptic vesicle endocytosis could be altered by the hormone status of the neuron. […] The dye was then removed and the number, intensity and retention of the FM1-43 in random nerve terminals immediately after washing and after six minutes of autonomous activity were analyzed in paraformaldehyde fixed cells (Ryan, 1999, J. Neurosci.: 19:1317-1323). Fluorescence in single nerve terminals (ROI=7×7 pixels) and in an adjacent segment of the neuronal fiber were measured for 40-45 individual nerve terminals. […] Fluorescence intensity was determined using NIH Image software. The total FM1-43 fluorescence in a nerve terminal represents the sum of the dye-loaded synaptic vesicles in the readily releasable and the reserve pools.
By allowing recurrent activity, the FM1-43 filled synaptic vesicles present in the readily releasable pool will be progressively depleted. […] By measuring the total FM1-43 content in random nerve terminals immediately after loading and at 30 second intervals for six minutes of spontaneous activity, the influence of hormones on the distribution of recycling synaptic vesicles between the readily releasable and reserve pools was estimated.

Molecule: Δ myosin ^1830: myosin V tail deletion mutant, residues 1830-1852; vesicle-binding domain (NPSSLALETIQIPASLGLGFIAR)
- increase of the t1/2 of FM1-43 retention ([1]; expression from Ad5 construct (MOI=10), T4 supplemented medium): 50%

Molecule: N[C@@H](Cc1cc(I)c(Oc2ccc(O)c(I)c2)c(I)c1)C(=O)O [T3, 3,5, 3′-triiodothyronine]
- p29^GFP vesicle binding to F-actin, dose-response ([2]; 0-100 nM, below the highest concentration): did not increase
- increase in p29^GFP vesicle binding to F-actin ([2]; 100 nM, highest concentration of hormone used): 10-20%
- retention of recycling synaptic vesicles ([1]; 10 nM hormone, continuous stimulation by 50 mM KCl): no effect
- endocytosed FM1-43 released ([3]; after three minutes of spontaneous activity): > 80%
- uptake of FM1-43 ([3]; immediately after loading): No differences

B1: myosin V tail lacking the last 44 residues (residues 953-1803): myosin V tail truncation mutant, residues 953-1803 (protein)
chain: LEGVYNSETEKLRNDVERLQLSEEEAKVATGRVLSLQEEIAKLRKDLEQTRSEKKSIEERADKYKQETDQLVSNLKEENTLLKQEKETLNHRIVEQAKEMTETMERKLVEETKQLELDLNDERLRYQNLLNEFSRLEERYDDLKEEMTLMLNVPKPGHKRTDSTHSSNESEYTFSSEFAETEDIAPRTEEPIEKKVPLDMSLFLKLQKRVTELEQEKQLMQDELDRKEEQVFRSKAKEEERPQIRGAELEYESLKRQELESENKKLKNELNELRKALSEKSAPEVTAPGAPAYRVLMEQLTSVSEELDVRKEEVLILRSQLVSQKEAIQPKDDKNTMTDSTILLEDVQKMKDKGEIAQAYIGLKETNRLLESQLQSQKRSHENEAEALRGEIQSLKEENNRQQQLLAQNLQLPPEARIEASLQHEITRLTNENLYFEELYADDPKKYQSYRISLYKRMIDLMEQLEKQDKTVRKLKKQLKVFAKKIGELEVGQMENISPGQIIDEPIRPVNIPRKEKDFQGMLEYKREDEQKLVKNLILELKPRGVAVNLIPGLPAYILFMCVRHADYLNDDQKVRSLLTSTINSIKKVLKKRGDDFETVSFWLSNTCRFLHCLKQYSGEEGFMKHNTSRQNEHCLTNFDLAEYRQVLSDLAIQIYQQLVRVLENILQPMIVSGMLEHETIQGVSGVKPTGLRKRTSSIADEGTYTLDSILRQLNSFHSVMCQHGMDPELIKQVVKQMFYIVGAITLNNLLLRKDMCSWSKGMQIRYNVSQLEEWLRDKNLMNSGAKETLEPLIQAAQLLQVKKKTDDDAEAICSMCNALTTAQIVKVLNLYTPVNEFEERVSVSFIRTIQ
- competition with native myosin V for T4-dependent binding of p29 to F-actin [2]: did not compete

B2: A myosin V middle: myosin V truncation mutant corresponding to amino acids 504-1307 (protein)
chain: GILDLLDEECKMPKGTDDTWAQKLYNTHLNKCALFEKPRMSNKAFIIKHFADKVEYQCEGFLEKNKDTVFEEQIKVLKSSKFKMLPELFQDDEKAISPTSATSSGRTPLTRVPVKPTKGRPGQTAKEHKKTVGHQFRNSLHLLMETLNATTPHYVRCIKPNDFKFPFTFDEKRAVQQLRACGVLETIRISAAGFPSRWTYQEFFSRYRVLMKQKDVLGDRKQTCKNVLEKLILDKDKYQFGKTKIFFRAGQVAYLEKLRADKLRAACIRIQKTIRGWLLRKRYLCMQRAAITVQRYVRGYQARCYAKFLRRTKAATTIQKYWRMYVVRRRYKIRRAATIVIQSYLRGYLTRNRYRKILREYKAVIIQKRVRGWLARTHYKRTMKAIVYLQCCFRRMMAKRELKKLKIEARSVERYKKLHIGMENKIMQLQRKVDEQNKDYKCLMEKLTNLEGVYNSETEKLRNDVERLQLSEEEAKVATGRVLSLQEEIAKLRKDLEQTRSEKKSIEERADKYKQETDQLVSNLKEENTLLKQEKETLNHRIVEQAKEMTETMERKLVEETKQLELDLNDERLRYQNLLNEFSRLEERYDDLKEEMTLMLNVPKPGHKRTDSTHSSNESEYTFSSEFAETEDIAPRTEEPIEKKVPLDMSLFLKLQKRVTELEQEKQLMQDELDRKEEQVFRSKAKEEERPQIRGAELEYESLKRQELESENKKLKNELNELRKALSEKSAPEVTAPGAPAYRVLMEQLTSVSEELDVRKEEVLILRSQLVSQKEAIQPKDDKNTMTDSTILLEDVQKMKDKGE
- competition with native myosin V for T4-dependent binding of p29 to F-actin [2]: did not compete
